# Values of other authors in US20100196363A1, “CANCER TREATMENT COMBINATION THERAPY COMPRISING VINFLUNINE AND TRASTUZUMAB” (Pierre Fabre Medicament, priority 2007, published 2010).
# Tested on: breast cancer
# Settings: vinflunine alone, same dosage, regimen and period; breast cancer patients
smiles,measurement,value
"CC[C@]12C=CCN3CC[C@@]4(c5cc([C@@]6(C(=O)OC)C[C@@H]7C[C@@H](C(C)(F)F)CN(Cc8c6[nH]c6ccccc86)C7)c(OC)cc5N(C)[C@H]4[C@@](O)(C(=O)OC)[C@@H]1OC(C)=O)[C@@H]32 [Vinflunine, 20′,20′difluoro-3′,4′-dihydrovinorelbine]",Overall Response (RECIST),about 30%
